The values below are quoted from earlier work in patent publication US9433553B2, “Device and method for prevention and treatment of deep venous thrombosis” (Fred Herz Patents LLC, priority 2001, dated 2016).

The target of one series is thrombin (Homo sapiens, UniProt P00734). Particulars: synthetic peptides of the thrombin receptor.
The subject of series [1] is patients undergoing elective total hip replacement.
The test system of series [2] is patients undergoing knee arthroplasty.
Series [3] deals with patients having surgery after hip fracture. To be noted: aspirin treated group; placebo 46%.
The test system of series [4] is experimental thrombus in the rabbit jugular vein.
Series [5] concerns stasis induced thrombosis. To be noted: rabbit; 100% without.
The subject of series [6] is patients with spinal cord injury. Particulars: Green (1991).
The test system of series [7] is patients undergoing radical prostatectomy.
Series [8] deals with patients with deep vein thrombosis. Particulars: for patients who developed pulmonary embolism: APTT 50-70 seconds, acute deep vein thrombosis.
Series [9] has as its system patients who underwent elective general surgery.
The mark [10] stands for this setting: total hip replacement, no placebo group.
Setting [11] is: 349 patients undergoing total hip replacement, dose adjusted.
[12] abbreviates: 665 patients, fixed doses, elective total hip replacement.
The mark [13] stands for this setting: subcutaneous, adjusted to APTT 1.5-2 times pretreatment, 66 patients.
[14] abbreviates: 4,498 general surgery patients randomized to LMWH or placebo.

Read-outs that look alike come from different tables or passages of the source.

As for “38-45: synthetic peptide corresponding to the thrombin receptor cleavage site (residues 38-45) (LDPRSFLL; UniProt P25116 38-45, looked up, fragment) [Peptide 38-45]”, in the series with thrombin, the “inhibition of the chromogenic substrate activity of thrombin” value is recorded as “competitive inhibitors”.
On to “38-64: synthetic peptide corresponding to the covalently associated domains (residues 38-64) of the thrombin receptor (LDPRSFLLRNPNDKYEPFWEDEEKNES; UniProt P25116 38-64, looked up, fragment) [Peptide 38-64]”, for which the “inhibition of the chromogenic substrate activity of thrombin” value in the series with thrombin is reported as “competitive inhibitors”.
Turning to `CC(=O)CC(c1ccccc1)c1c(O)c2ccccc2oc1=O` (stereo not shown) [Warfarin], the “incidence of DVT” value in series [1] (Bailey et al (1991), hip replacement patients, low dose warfarin) is 26.6%. In series [1] (setting [10]), the “incidence of proximal vein thrombosis” value is given as 3% and the “total incidence of DVT” value was 31%. Further, the “incidence of thigh vein thrombi” value in series [2] (knee arthroplasty / total knee replacement, 48 patients) is on record as 6%. In series [2] (knee arthroplasty / total knee replacement, 48 patients, no placebo group), the “overall incidence of DVT” value is 33%. In addition, the “patients having calf thrombi” value in [2] (total knee replacement, 48 patients) is reported as 29%.
Turning to `CC(=O)Oc1ccccc1C(=O)O` [aspirin], the “incidence of DVT” value in series [3] is listed as 42%.
As for Ac(D)-Phe-Pro-bro-Arg [DuP 714], the “fibrin accretion on an experimental thrombus” value in [4] (rabbit jugular vein) was “effectively inhibited”. Further, the systemic anticoagulation result in [4] (rabbit jugular vein model) is listed as “little systemic anticoagulation”. Further, the incidence of thrombosis in [5] was 33%.
For enoxaparin, the proximal vein thrombi in series [1] (Turpie (1991), fixed dose, elective total hip replacement, placebo 20%) is on record as 4%. For the same compound, in series [1] (Turpie (1991), fixed dose, elective total hip replacement, placebo 42%), the “rate of DVT” value is 12%.
Turning to heparin, the patients with bleeding is on record as 24% in [6] (adjusted (higher) dose) and “none” in [6] (fixed dose group). Besides, the thromboembolism in [6] (dose adjusted to APTT 1.5 times control, mean 13,200 U every 12 hours) was 7%; in series [6] (fixed dose of 5000 U subcutaneously every 12 hours, 29 patients) it was 31%. The bleeding complications result in series [7] (mini-dose heparin treated group) is recorded as “unacceptably high”. In [7] (mini-dose heparin, 11% without), the “incidence of pulmonary emboli” value is “none”. For the same compound, the “effectiveness of low dose heparin” value in the series with intracerebral hemorrhage is listed as “ineffective”. The “protection against postoperative DVT, adjusted versus fixed low dose” value in series [1] (100 patients, hip replacement or fractured neck of femur, p=0.017) is “Significant improvement”. In addition, the entries for the “incidence of DVT” value in series [1] (setting [11]) and in series [1] (setting [12]) were 16% and 23.2%, respectively. Further, the “rate of proximal vein thrombi” value in series [1] (setting [12]) is 6.5%. Besides, in series [1] (Leyvraz et al (1983)), the “bleeding, adjusted versus fixed dose” value is listed as “No differences”. Moreover, the “patients who developed DVT” value is given as 13% in [1] (Leyvraz et al (1983), 38 patients, adjusted dose (APTT 31.5-36 seconds)) and 39% in series [1] (Leyvraz et al (1983), 41 patients, fixed dose of 3500 U every eight hours). Also, in [1] (total hip and total knee replacement patients), the “incidence of DVT left by low dose heparin treatment” value is “around 25%”. The “patients with recurrent venous thromboembolism diagnosed objectively” value in series [8] (Prandoni et al (1992), similar study, 85 patients) is listed as 14%. The “patients with improved mean Marder score” value in series [8] (adjusted dose intravenous, 49 patients) was 61%. Besides, the “major bleeding associated with initial therapy” value in series [8] (adjusted dose intravenous, continuous infusion) is given as 5%. Besides, the “incidence of new episodes of venous thromboembolism” value in series [8] (adjusted dose intravenous, continuous infusion, initial treatment of proximal vein thrombosis) is 6.9%. For the same compound, the “patients who developed pulmonary embolism” value in series [8] (adjusted subcutaneous, 47 patients) is 10.6%; in [8] (continuous intravenous, 49 patients) it was 10.2%. Further, in [8] (subcutaneous and intravenous groups, no difference), the “rate of hemorrhagic complications” value is recorded as 9.8%. Also, the patients with improvement in series [8] (setting [13]) is reported as 48%. In [8] (setting [13]), the “patients with increase in thrombus size” value is given as 18%. Moreover, in series [9] (low dose heparin), the “reduction of postoperative death from pulmonary emboli” value is given as 65%. Also, the subclinical thrombi prevented entry in series [9] (low dose heparin, thrombi found by leg scanning after elective general surgery) is reported as “approximately 65%”.
Turning to low molecular weight heparin [LMWH], the “incidence of DVT” value in [1] (setting [11]) is 12.6%; in series [1] (setting [12]) it was 19.4%; in series [1] (elective total hip replacement, without LMWH 56.6%), 15.5%; in series [2] (knee arthroplasty or tibial osteotomy, every 12 hours, placebo 65%), 19%; in [9] (Ockelford et al (1989), 183 patients, LMWH or placebo), 4.2%. Further, the “rate of proximal vein thrombi” value in series [1] (setting [12]) is on record as 5.4%. The “reduction of incidence of DVT” value is on record as 74% in series [1] (elective total hip replacement, 56.6% to 15.5%) and 71% in series [2] (knee arthroplasty or tibial osteotomy, every 12 hours). Also, the “reduction of incidence of proximal vein thrombi” value in series [2] (knee arthroplasty or tibial osteotomy) is 100%. The “incidence of proximal vein thrombi” value in [2] (knee arthroplasty or tibial osteotomy, placebo 19%) is recorded as “none”. In series [9] (4,498 general surgery patients), the “major bleeding compared to placebo” value is “No difference”. Besides, the “postoperative wound hematomas and transfusion requirements compared to placebo” value in series [9] (4,498 general surgery patients) was “increase in postoperative wound hematomas and transfusion requirements”. The overall mortality in series [9] (setting [14]) is 0.36%. Moreover, the thromboembolic mortality in series [9] (setting [14]) is 0.09%. Besides, the “efficacy compared with standard heparin” value in series [9] (seven studies in general surgery patients) is given as “same efficacy”.
